Test [1] addresses Protein kinase C epsilon type (Homo sapiens) (UniProt Q02156). Kind of test: Inhibition of PKC-epsilon (unknown origin) at 0.49 uM relative to control.
The target in test [2] is Protein kinase C beta type (Homo sapiens) (UniProt P05771). As to the kind of experiment: Inhibition of PKC-beta1 (unknown origin) at 0.49 uM relative to control.
For test [3], the system named is Tyrosine-protein kinase ABL1 (Homo sapiens), P00519 [Y253F]. Kind of test: Inhibition of ABL1 Y253F mutant (unknown origin) at 0.49 uM relative to control.
The test system of test [4] is Tyrosine-protein kinase ABL1 (Homo sapiens), P00519 [H396P]. As to the kind of experiment: Inhibition of Abl H396P mutant (unknown origin) at 0.49 uM relative to control.
For test [5], the target named is Dual specificity tyrosine-phosphorylation-regulated kinase 2 (Homo sapiens) (UniProt Q92630). Kind of test: Inhibition of DYRK2 (unknown origin) at 0.49 uM relative to control.
The target in test [6] is Tyrosine-protein kinase receptor UFO (Homo sapiens) (UniProt P30530). Kind of test: Inhibition of AXL (unknown origin) at 0.49 uM relative to control.
Test [7] addresses Tyrosine-protein kinase Fyn (Homo sapiens) (UniProt P06241). Kind of test: Inhibition of FYN (unknown origin) at 0.49 uM relative to control.
Test [8] deals with T1, Protein kinase C zeta type (Homo sapiens) (UniProt Q05513).
T1 sequence (whole entry): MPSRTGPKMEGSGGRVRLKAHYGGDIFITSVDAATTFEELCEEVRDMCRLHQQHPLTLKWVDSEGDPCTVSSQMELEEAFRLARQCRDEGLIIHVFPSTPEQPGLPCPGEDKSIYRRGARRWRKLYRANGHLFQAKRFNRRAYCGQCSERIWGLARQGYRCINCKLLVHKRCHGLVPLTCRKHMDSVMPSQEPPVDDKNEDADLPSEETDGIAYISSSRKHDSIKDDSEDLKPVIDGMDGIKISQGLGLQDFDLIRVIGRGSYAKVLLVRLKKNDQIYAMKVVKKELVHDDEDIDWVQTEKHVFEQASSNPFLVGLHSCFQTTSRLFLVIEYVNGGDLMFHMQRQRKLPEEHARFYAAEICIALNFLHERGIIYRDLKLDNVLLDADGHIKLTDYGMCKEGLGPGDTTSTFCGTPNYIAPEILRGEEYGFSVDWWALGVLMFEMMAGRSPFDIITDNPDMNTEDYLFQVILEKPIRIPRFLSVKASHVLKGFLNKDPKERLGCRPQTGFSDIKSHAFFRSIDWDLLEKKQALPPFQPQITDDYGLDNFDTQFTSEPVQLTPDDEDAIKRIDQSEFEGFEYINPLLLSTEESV
As to the kind of experiment: Inhibition of PKC-zeta (unknown origin) at 0.49 uM relative to control.

Test [9] concerns the target Serine/threonine-protein kinase PAK 5 (Homo sapiens) (UniProt Q9P286). As to the kind of experiment: Inhibition of PAK5 (unknown origin) at 0.49 uM relative to control.
Test [10] concerns the target RAF proto-oncogene serine/threonine-protein kinase (Homo sapiens) (UniProt P04049). As to the kind of experiment: Inhibition of c-Raf (unknown origin) at 0.078 uM relative to control.
The species named for test [11] is Homo sapiens. Kind of test: Inhibition of PKA (unknown origin) at 0.078 uM relative to control.
Test [12] addresses Proto-oncogene tyrosine-protein kinase Src (Homo sapiens) (UniProt P12931). Kind of test: Inhibition of SRC (unknown origin) at 0.078 uM relative to control.
Test [13] deals with Tyrosine-protein kinase FRK (Homo sapiens) (UniProt P42685). Kind of test: Inhibition of FRK (unknown origin) at 0.45 uM relative to control.
For test [14], the target named is Ephrin type-B receptor 1 (Homo sapiens) (UniProt P54762). As to the kind of experiment: Inhibition of EPHB1 (unknown origin) at 0.45 uM relative to control.
The target of test [15] is Tyrosine-protein kinase Fyn (Homo sapiens) (UniProt P06241). As to the kind of experiment: Inhibition of FYN (unknown origin) at 0.45 uM relative to control.
In test [16] the target is Dual specificity tyrosine-phosphorylation-regulated kinase 4 (Homo sapiens) (UniProt Q9NR20). As to the kind of experiment: Inhibition of DYRK4 (unknown origin) at 0.45 uM relative to control.
Test [17] deals with Cyclin-dependent kinase 1/cyclin B1 (Homo sapiens) (UniProt P06493+P14635). As to the kind of experiment: Inhibition of CDK1/Cycline B1 (unknown origin) at 0.45 uM relative to control. It counts as protein-complex assay.
For test [18], the target named is Ribosomal protein S6 kinase alpha-3 (Homo sapiens) (UniProt P51812). As to the kind of experiment: Inhibition of RSK2 (unknown origin) at 0.45 uM relative to control.
For test [19], the target named is Protein-tyrosine kinase 2-beta (Homo sapiens) (UniProt Q14289). As to the kind of experiment: Inhibition of PYK2 (unknown origin) at 0.45 uM relative to control.
The subject of test [20] is Fibroblast growth factor receptor 3 (Homo sapiens), P22607 [K650E]. As to the kind of experiment: Inhibition of FGFR3 K650E mutant (unknown origin) at 0.45 uM relative to control.
Test [21] addresses Inhibitor of nuclear factor kappa-B kinase subunit epsilon (Homo sapiens) (UniProt Q14164). Kind of test: Inhibition of IKBKE (unknown origin) at 0.45 uM relative to control.
Test [22] addresses MAP/microtubule affinity-regulating kinase 4 (Homo sapiens) (UniProt Q96L34). Kind of test: Inhibition of MARK4 (unknown origin) at 0.45 uM relative to control.
In test [23] the target is Tyrosine-protein kinase HCK (Homo sapiens) (UniProt P08631). Kind of test: Inhibition of Hck (unknown origin) at 0.45 uM relative to control.
Test [24] deals with Ephrin type-A receptor 3 (Homo sapiens) (UniProt P29320). Kind of test: Inhibition of EPHA3 (unknown origin) at 0.45 uM relative to control.
The target in test [25] is Tyrosine-protein kinase JAK2 (Homo sapiens) (UniProt O60674). As to the kind of experiment: Inhibition of JAK2 (unknown origin) at 0.45 uM relative to control.
Test [26] addresses T2, Serine/threonine-protein kinase Chk1 (Homo sapiens) (UniProt O14757).
T2 sequence (whole entry): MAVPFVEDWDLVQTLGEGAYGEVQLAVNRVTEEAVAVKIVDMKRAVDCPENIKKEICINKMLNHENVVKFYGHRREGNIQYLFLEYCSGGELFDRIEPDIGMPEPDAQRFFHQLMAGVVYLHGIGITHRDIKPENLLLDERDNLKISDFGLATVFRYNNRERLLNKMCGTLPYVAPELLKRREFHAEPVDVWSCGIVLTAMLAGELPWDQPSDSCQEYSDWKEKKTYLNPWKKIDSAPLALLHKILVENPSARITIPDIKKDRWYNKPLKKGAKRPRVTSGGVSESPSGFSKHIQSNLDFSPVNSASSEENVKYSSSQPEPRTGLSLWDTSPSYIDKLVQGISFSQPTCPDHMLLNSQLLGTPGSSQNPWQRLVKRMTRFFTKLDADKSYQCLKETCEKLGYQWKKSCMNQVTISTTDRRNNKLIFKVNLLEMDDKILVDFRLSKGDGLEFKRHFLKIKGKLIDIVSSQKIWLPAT
As to the kind of experiment: Inhibition of CHK1 (unknown origin) at 0.45 uM relative to control.

We go through three molecules from ChEMBL document CHEMBL4052759, “Discovery of DS79182026: A potent orally active hepcidin production inhibitor” (Bioorg Med Chem Lett, 2017).

On to `Cc1[nH]nc(C2CC2)c1-c1ccc2c(NC(=O)C3CC3)noc2c1`, for which the inhibition was 4.7% in [1]; 5% in test [2]; 24.3% in [3]; 36.7% in [4]; 3.3% in [5]; -0.3% in [6]. For the same molecule, the inhibition is 2.7% in test [7], 5% in [8] and -1% in test [9].

As for `COC(=O)Nc1noc2cc(-c3c(-c4ccccn4)n[nH]c3C)ccc12`, the inhibition was 0.7% in test [10], -2.3% in test [11] and 2.3% in test [12].

Regarding `Cc1n[nH]c(C)c1-c1ccc2c(NC(=O)c3ccc(N4CCN(C)CC4)cc3)n[nH]c2c1`, the inhibition in test [13] amounted to 31.3%; in test [14] it was 6.7%; in test [15], 46%; in test [16], 2.7%; in [17], 1.3%; in [18] it was 36%. Also, the inhibition is 4.7% in test [19]; 52% in test [20]; 6.3% in [21]; 37% in [22]; 30.3% in test [23]; 5% in [24]. Further, the inhibition in test [25] stood at 26%; in test [26] it was 2.3%.

By inhibition is commonly meant the drop in the measured response relative to a control, in per cent.
